Values of other authors as cited in patent publication US20250101519A1, “USE OF HYPOXIA-INDUCIBLE FACTOR 1 ALPHA AS MARKER IN DEPRESSION RECURRENCE DIAGNOSIS” (NINGBO UNIVERSITY, priority 2022, published 2025).

Tests used:
[1] = in humans
[2] = in mice; other references report various values

## CNCCC(Oc1ccc(C(F)(F)F)cc1)c1ccccc1 (centres unmarked) [fluoxetine]
[1]
  metabolic clearance half-life: 96 to 140 h
[2]
  clearance half-life: 9 h
